# Publication PMC11864979, “First-in-class ultralong-target-residence-time p38α inhibitors as a mitosis-targeted therapy for colorectal cancer” (Nature Cancer, 2025)
# Like-named read-outs stand apart in the source and are kept apart here.
# Columns and labels:
# Assay in all cases: selectivity profiling in a panel of 340 wild-type kinases (Reaction Biology Europe)
# Type in all cases: binding
# 340 wild-type kinases [1] = biological target: T1, 340 wild-type kinases (Homo sapiens, UniProt O60285)
# T1 construct: purchased Reaction Biology Europe
# T1 sequence (O60285 1-661): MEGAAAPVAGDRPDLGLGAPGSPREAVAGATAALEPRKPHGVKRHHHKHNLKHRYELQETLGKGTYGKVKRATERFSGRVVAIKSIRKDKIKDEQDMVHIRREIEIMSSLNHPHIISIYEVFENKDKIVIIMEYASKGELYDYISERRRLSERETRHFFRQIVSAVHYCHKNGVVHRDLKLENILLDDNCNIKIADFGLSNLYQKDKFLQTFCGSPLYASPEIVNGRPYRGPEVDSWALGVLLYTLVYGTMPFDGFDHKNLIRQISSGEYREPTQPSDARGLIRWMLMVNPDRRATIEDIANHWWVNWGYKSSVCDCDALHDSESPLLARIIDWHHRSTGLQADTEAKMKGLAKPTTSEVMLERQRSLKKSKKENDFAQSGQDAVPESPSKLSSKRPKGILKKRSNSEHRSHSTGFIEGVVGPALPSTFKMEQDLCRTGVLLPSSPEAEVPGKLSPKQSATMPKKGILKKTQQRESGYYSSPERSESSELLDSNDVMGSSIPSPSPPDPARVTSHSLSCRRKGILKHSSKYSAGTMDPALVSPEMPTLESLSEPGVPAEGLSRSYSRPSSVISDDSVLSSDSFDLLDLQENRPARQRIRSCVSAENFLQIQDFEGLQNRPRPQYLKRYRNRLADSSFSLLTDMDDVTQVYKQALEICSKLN
# 340 wild-type kinases [2] = biological target: T2, 340 wild-type kinases (Homo sapiens, UniProt P54762)
# T2 construct: purchased Reaction Biology Europe
# T2 sequence (P54762 18-984): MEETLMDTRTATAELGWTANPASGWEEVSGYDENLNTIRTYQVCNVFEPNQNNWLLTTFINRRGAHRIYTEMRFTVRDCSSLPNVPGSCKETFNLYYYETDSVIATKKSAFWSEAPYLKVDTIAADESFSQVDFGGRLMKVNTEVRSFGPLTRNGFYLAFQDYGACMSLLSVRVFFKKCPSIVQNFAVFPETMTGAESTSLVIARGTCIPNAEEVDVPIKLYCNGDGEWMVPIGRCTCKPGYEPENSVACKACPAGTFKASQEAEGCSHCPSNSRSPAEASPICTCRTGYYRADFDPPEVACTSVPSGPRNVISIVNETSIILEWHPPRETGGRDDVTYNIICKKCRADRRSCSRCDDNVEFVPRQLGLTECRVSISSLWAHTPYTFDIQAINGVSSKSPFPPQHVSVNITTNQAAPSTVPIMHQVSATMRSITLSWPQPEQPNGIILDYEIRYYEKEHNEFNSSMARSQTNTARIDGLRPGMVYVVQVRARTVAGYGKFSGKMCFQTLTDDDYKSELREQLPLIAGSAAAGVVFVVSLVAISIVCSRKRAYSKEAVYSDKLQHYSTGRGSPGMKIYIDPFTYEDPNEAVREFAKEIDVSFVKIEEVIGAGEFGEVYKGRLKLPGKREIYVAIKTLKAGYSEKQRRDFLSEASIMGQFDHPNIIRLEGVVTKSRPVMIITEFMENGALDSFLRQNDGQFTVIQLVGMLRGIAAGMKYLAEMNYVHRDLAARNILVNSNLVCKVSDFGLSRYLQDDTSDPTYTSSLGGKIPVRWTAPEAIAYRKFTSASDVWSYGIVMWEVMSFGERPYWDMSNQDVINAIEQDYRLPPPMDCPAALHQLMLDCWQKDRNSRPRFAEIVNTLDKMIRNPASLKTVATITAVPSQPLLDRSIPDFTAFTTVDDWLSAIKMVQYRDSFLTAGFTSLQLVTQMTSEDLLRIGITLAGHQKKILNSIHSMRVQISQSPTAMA
# 340 wild-type kinases [3] = biological target: T3, 340 wild-type kinases (Homo sapiens, UniProt P78362)
# T3 construct: purchased Reaction Biology Europe
# 340 wild-type kinases [4] = biological target: T4, 340 wild-type kinases (Homo sapiens, UniProt Q9UQB9)
# T4 construct: purchased Reaction Biology Europe
# T4 sequence (Q9UQB9 1-309): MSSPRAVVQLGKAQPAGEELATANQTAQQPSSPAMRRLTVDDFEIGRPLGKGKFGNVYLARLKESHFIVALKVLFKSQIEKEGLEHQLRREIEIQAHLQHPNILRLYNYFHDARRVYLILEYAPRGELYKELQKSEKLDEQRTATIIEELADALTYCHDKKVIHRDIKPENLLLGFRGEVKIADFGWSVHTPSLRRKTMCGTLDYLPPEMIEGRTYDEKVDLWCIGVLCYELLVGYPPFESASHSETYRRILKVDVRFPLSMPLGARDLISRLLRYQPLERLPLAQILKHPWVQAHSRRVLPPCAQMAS
# T3 sequence (P78362 whole entry): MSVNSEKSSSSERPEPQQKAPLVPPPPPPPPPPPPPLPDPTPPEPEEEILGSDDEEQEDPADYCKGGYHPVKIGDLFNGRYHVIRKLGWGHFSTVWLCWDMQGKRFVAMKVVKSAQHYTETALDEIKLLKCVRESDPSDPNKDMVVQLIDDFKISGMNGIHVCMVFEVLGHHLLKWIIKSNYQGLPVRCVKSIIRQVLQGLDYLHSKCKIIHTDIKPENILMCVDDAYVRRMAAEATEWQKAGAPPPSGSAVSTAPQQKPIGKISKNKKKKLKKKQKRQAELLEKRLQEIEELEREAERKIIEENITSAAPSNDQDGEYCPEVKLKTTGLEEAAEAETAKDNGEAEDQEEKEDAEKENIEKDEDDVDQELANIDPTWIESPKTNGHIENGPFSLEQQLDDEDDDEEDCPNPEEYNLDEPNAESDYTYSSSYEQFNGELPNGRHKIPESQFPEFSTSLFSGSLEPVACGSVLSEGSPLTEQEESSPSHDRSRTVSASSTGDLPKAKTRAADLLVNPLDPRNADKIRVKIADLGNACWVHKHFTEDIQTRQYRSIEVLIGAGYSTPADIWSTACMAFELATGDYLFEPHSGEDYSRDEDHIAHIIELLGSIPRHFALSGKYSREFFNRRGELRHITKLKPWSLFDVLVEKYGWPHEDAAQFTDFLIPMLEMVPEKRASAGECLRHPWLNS
compound,measurement,setting,value
CNC(=O)c1ccc2c(c1)C(=O)c1ccc(Nc3ccc(F)c(NC(=O)C4CC4)c3)cc1CC2 [Compound 2015],remaining activity at 0.2 µM,"340 wild-type kinases [1]; 0.2 µM 2015, read-out: ARK5 residual activity",96.7%
same,remaining activity at 1 µM,"340 wild-type kinases [1]; 1 µM 2015, read-out: ARK5 residual activity",98.5%
same,remaining activity at 0.2 µM,"340 wild-type kinases [1]; ARK5, 0.2 µM, read-out: residual activity",96.7%
same,remaining activity at 1 µM,"340 wild-type kinases [1]; ARK5, 1 µM, read-out: residual activity",98.5%
same,remaining activity at 0.2 µM,"340 wild-type kinases [2]; 0.2 µM 2015, read-out: EPHB1 residual activity",118%
same,remaining activity at 1 µM,"340 wild-type kinases [2]; 1 µM 2015, read-out: EPHB1 residual activity",103%
same,remaining activity at 0.2 µM,"340 wild-type kinases [2]; EPHB1, 0.2 µM, read-out: residual activity",118%
same,remaining activity at 1 µM,"340 wild-type kinases [2]; EPHB1, 1 µM, read-out: residual activity",103%
same,remaining activity at 0.2 µM,"340 wild-type kinases [3]; 0.2 µM 2015, read-out: SRPK2 residual activity",89.5%
same,remaining activity at 1 µM,"340 wild-type kinases [3]; 1 µM 2015, read-out: SRPK2 residual activity",91.2%
same,remaining activity at 0.2 µM,"340 wild-type kinases [3]; SRPK2, 0.2 µM, read-out: residual activity",89.5%
same,remaining activity at 1 µM,"340 wild-type kinases [3]; SRPK2, 1 µM, read-out: residual activity",91.2%
same,remaining activity at 0.2 µM,"340 wild-type kinases [4]; 0.2 µM 2015, read-out: AuroraC residual activity",88.5%
same,remaining activity at 1 µM,"340 wild-type kinases [4]; 1 µM 2015, read-out: AuroraC residual activity",96.3%
same,remaining activity at 0.2 µM,"340 wild-type kinases [4]; AuroraC, 0.2 µM, read-out: residual activity",88.5%
same,remaining activity at 1 µM,"340 wild-type kinases [4]; AuroraC, 1 µM, read-out: residual activity",96.3%
